Data from ChEMBL document CHEMBL1126058, “Development of potent and selective CCK-A receptor agonists from Boc-CCK-4: tetrapeptides containing Lys(N epsilon)-amide residues” (J Med Chem, 1992).
Where a SMILES comes first, the peptide text is derived from it. [ ]: non-standard residue; d: D form. The star is where a group is joined. Acryloyl(3-(3-pyridyl),E) = O=C(/C=C/c1cccnc1)*; Propanoyl(3-(4-F-phenyl)) = O=C(CCc1ccc(F)cc1)*; 2Naphthoyl(6-OH) = O=C(c1ccc2cc(O)ccc2c1)*; Hydrocinnamoyl(4-Me) = Cc1ccc(CCC(=O)*)cc1; Quinoline3carbonyl = O=C(c1cnc2ccccc2c1)*; Dihydrocaffeoyl = O=C(CCc1ccc(O)c(O)c1)*; X23 = O=C(/C=C/c1ccc(OS(=O)(=O)O)cc1)*; X28 = O=C(/C=C\c1cccc(OS(=O)(=O)O)c1)*; X35 = O=C(/C=C\c1ccc(OS(=O)(=O)O)cc1)*; X6 = O=C(/C=C\c1ccc([N+](=O)[O-])cc1)*; Desaminotyrosyl = O=C(CCc1ccc(O)cc1)*; Propanoyl(3-cHex) = O=C(CCC1CCCCC1)*; X20 = CC(=O)Oc1ccc2cc(C(=O)*)ccc2c1; X22 = O=C(CCc1cccc(OS(=O)(=O)O)c1)*; Butanoyl(4-Ph) = O=C(CCCc1ccccc1)*; X26 = O=C(/C=C\c1ccc(Cl)c(Cl)c1)*; NMeF = CN[C@@H](Cc1ccccc1)C(=O)O; X30 = O=C(CCc1ccc(C(F)(F)F)cc1)*; X10 = O=C(/C=C\c1ccc(Cl)cc1Cl)*; X1 = O=C(/C=C\c1ccc(O)c(O)c1)*; X21 = O=C(/C=C\c1ccc(Br)cc1)*; X34 = O=C(/C=C\c1ccc(Cl)cc1)*; X18 = O=C(c1cc2ccccc2[nH]1)*; X3 = O=C(/C=C/c1ccc(O)cc1)*; X4 = O=C(/C=C\c1ccc(F)cc1)*; X27 = O=C(Cc1ccc(O)cc1)*; X5 = O=C(CCc1cccc(O)c1)*; X9 = O=C(/C=C/c1cccs1)*; Boc = CC(C)(C)OC(=O)*

Assays:
Cavia porcellus [1] = species on record: Cavia porcellus; assay: Stimulation of amylase release in guinea pig pancreas; type: functional
Cavia porcellus [2] = species on record: Cavia porcellus; assay: Hydrolysis of phosphoinositide (PI) relative to maximal response elicited by CCK-8 in guinea pig pancreas.; type: functional
[3] = molecular target: T1, Cholecystokinin receptor type A (Cavia porcellus, UniProt Q63931); assay: Inhibition of specific binding of [125I]BH-CCK-8 in guinea pig pancreas.
T1 sequence (Q63931 whole entry): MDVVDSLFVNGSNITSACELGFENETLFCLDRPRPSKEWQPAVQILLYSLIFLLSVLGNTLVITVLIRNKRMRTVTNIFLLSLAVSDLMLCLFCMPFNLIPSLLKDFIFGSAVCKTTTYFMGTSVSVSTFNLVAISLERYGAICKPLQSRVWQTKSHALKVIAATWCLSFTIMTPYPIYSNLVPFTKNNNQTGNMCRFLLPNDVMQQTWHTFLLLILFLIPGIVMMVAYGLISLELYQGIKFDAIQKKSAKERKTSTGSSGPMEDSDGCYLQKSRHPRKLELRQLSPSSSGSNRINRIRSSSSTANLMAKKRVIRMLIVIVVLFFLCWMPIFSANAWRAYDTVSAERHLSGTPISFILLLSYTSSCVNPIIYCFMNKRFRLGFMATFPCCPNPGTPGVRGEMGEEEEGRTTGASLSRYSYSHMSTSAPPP

Row | SMILES | EC50 (Cavia porcellus [1]) | IC50 [3] | Max (Cavia porcellus [2])
1 | CC(C)(C)OC(=O)N[C@@H](Cc1c[nH]c2ccccc12)C(=O)N[C@@H](CCCCNC(=O)CCCc1ccccc1)C(=O)N[C@@H](CC(=O)O)C(=O)N[C@@H](Cc1ccccc1)C(N)=O (Boc-WK(Butanoyl(4-Ph))DF-NH2) | 30 µM | 0.91 µM | 19%
2 | CC(C)(C)OC(=O)N[C@@H](Cc1c[nH]c2ccccc12)C(=O)N[C@@H](CCCCNC(=O)CCc1ccc(O)cc1)C(=O)N[C@@H](CC(=O)O)C(=O)N[C@@H](Cc1ccccc1)C(N)=O (Boc-WK(Desaminotyrosyl)DF-NH2) | 0.092 µM | 0.12 µM | 77%
3 | CC(C)(C)OC(=O)N[C@@H](Cc1c[nH]c2ccccc12)C(=O)N[C@@H](CCCCNC(=O)Cc1ccc(O)cc1)C(=O)N[C@@H](CC(=O)O)C(=O)N[C@@H](Cc1ccccc1)C(N)=O (Boc-WK(X27)DF-NH2) | 30 µM | 1.1 µM | 88%
4 | CC(C)(C)OC(=O)N[C@@H](Cc1c[nH]c2ccccc12)C(=O)N[C@@H](CCCCNC(=O)/C=C\c1cccc(OS(=O)(=O)O)c1)C(=O)N[C@@H](CC(=O)O)C(=O)N[C@@H](Cc1ccccc1)C(N)=O (Boc-WK(X28)DF-NH2) | 0.025 µM | 0.039 µM | 70%
5 | CC(C)(C)OC(=O)N[C@@H](Cc1c[nH]c2ccccc12)C(=O)N[C@@H](CCCCNC(=O)/C=C/c1cccnc1)C(=O)N[C@@H](CC(=O)O)C(=O)N[C@@H](Cc1ccccc1)C(N)=O (Boc-WK(Acryloyl(3-(3-pyridyl),E))DF-NH2) | 0.038 µM | 0.021 µM | 60%
6 | CC(C)(C)OC(=O)N[C@@H](Cc1c[nH]c2ccccc12)C(=O)N[C@@H](CCCCNC(=O)CCc1ccc(F)cc1)C(=O)N[C@@H](CC(=O)O)C(=O)N[C@@H](Cc1ccccc1)C(N)=O (Boc-WK(Propanoyl(3-(4-F-phenyl)))DF-NH2) | 0.45 µM | 0.25 µM | 68%
7 | CC(C)(C)OC(=O)N[C@@H](Cc1c[nH]c2ccccc12)C(=O)N[C@@H](CCCCNC(=O)CCc1cccc(O)c1)C(=O)N[C@@H](CC(=O)O)C(=O)N[C@@H](Cc1ccccc1)C(N)=O (Boc-WK(X5)DF-NH2) | 0.16 µM | 0.4 µM | 46%
8 | CC(=O)Oc1ccc2cc(C(=O)NCCCC[C@H](NC(=O)[C@H](Cc3c[nH]c4ccccc34)NC(=O)OC(C)(C)C)C(=O)N[C@@H](CC(=O)O)C(=O)N[C@@H](Cc3ccccc3)C(N)=O)ccc2c1 (Boc-WK(X20)DF-NH2) | 0.011 µM | 0.008 µM | 49%
9 | Cc1ccc(CCC(=O)NCCCC[C@H](NC(=O)[C@H](Cc2c[nH]c3ccccc23)NC(=O)OC(C)(C)C)C(=O)N[C@@H](CC(=O)O)C(=O)N[C@@H](Cc2ccccc2)C(N)=O)cc1 (Boc-WK(Hydrocinnamoyl(4-Me))DF-NH2) | 0.24 µM | 0.29 µM | 62%
10 | CC(C)(C)OC(=O)N[C@@H](Cc1c[nH]c2ccccc12)C(=O)N[C@@H](CCCCNC(=O)CCc1ccc(O)c(O)c1)C(=O)N[C@@H](CC(=O)O)C(=O)N[C@@H](Cc1ccccc1)C(N)=O (Boc-WK(Dihydrocaffeoyl)DF-NH2) | 0.3 µM | 0.16 µM | 44%
11 | CC(C)(C)OC(=O)N[C@@H](Cc1c[nH]c2ccccc12)C(=O)N[C@@H](CCCCNC(=O)CCc1ccc(C(F)(F)F)cc1)C(=O)N[C@@H](CC(=O)O)C(=O)N[C@@H](Cc1ccccc1)C(N)=O (Boc-WK(X30)DF-NH2) | 30 µM | 0.39 µM | 77%
12 | CC(C)(C)OC(=O)N[C@@H](Cc1c[nH]c2ccccc12)C(=O)N[C@@H](CCCCNC(=O)CCC1CCCCC1)C(=O)N[C@@H](CC(=O)O)C(=O)N[C@@H](Cc1ccccc1)C(N)=O (Boc-WK(Propanoyl(3-cHex))DF-NH2) | 30 µM | 0.31 µM | 40%
13 | CSCC[C@H](NC(=O)[C@H](Cc1c[nH]c2ccccc12)NC(=O)OC(C)(C)C)C(=O)N[C@@H](CC(=O)O)C(=O)N[C@@H](Cc1ccccc1)C(N)=O | 2.6 µM |  | 40%

Continued, in another order:

Row | EC50 (Cavia porcellus [1]) | IC50 [3] | SMILES | Max (Cavia porcellus [2])
14 | 0.016 µM | 0.065 µM | CC(C)(C)OC(=O)N[C@@H](Cc1c[nH]c2ccccc12)C(=O)N[C@@H](CCCCNC(=O)/C=C\c1ccc(F)cc1)C(=O)N[C@@H](CC(=O)O)C(=O)N[C@@H](Cc1ccccc1)C(N)=O (Boc-WK(X4)DF-NH2) | 74%
15 | 0.039 µM | 0.033 µM | CC(C)(C)OC(=O)N[C@@H](Cc1c[nH]c2ccccc12)C(=O)N[C@@H](CCCCNC(=O)c1cnc2ccccc2c1)C(=O)N[C@@H](CC(=O)O)C(=O)N[C@@H](Cc1ccccc1)C(N)=O (Boc-WK(Quinoline3carbonyl)DF-NH2) | 46%
16 | 0.0029 µM | 0.022 µM | CN(C(=O)[C@H](CC(=O)O)NC(=O)[C@H](CCCCNC(=O)/C=C/c1ccc(OS(=O)(=O)O)cc1)NC(=O)[C@H](Cc1c[nH]c2ccccc12)NC(=O)OC(C)(C)C)[C@@H](Cc1ccccc1)C(N)=O (Boc-WK(X23)D[NMeF]-NH2) | 74%
18 | 0.027 µM | 0.057 µM | CC(C)(C)OC(=O)N[C@@H](Cc1c[nH]c2ccccc12)C(=O)N[C@@H](CCCCNC(=O)/C=C\c1ccc([N+](=O)[O-])cc1)C(=O)N[C@@H](CC(=O)O)C(=O)N[C@@H](Cc1ccccc1)C(N)=O (Boc-WK(X6)DF-NH2) | 64%
19 | 0.046 µM | 0.049 µM | CC(C)(C)OC(=O)N[C@@H](Cc1c[nH]c2ccccc12)C(=O)N[C@@H](CCCCNC(=O)/C=C\c1ccc(Cl)c(Cl)c1)C(=O)N[C@@H](CC(=O)O)C(=O)N[C@@H](Cc1ccccc1)C(N)=O (Boc-WK(X26)DF-NH2) | 62%
20 | 0.069 µM | 0.18 µM | CC(C)(C)OC(=O)N[C@@H](Cc1c[nH]c2ccccc12)C(=O)N[C@@H](CCCCNC(=O)CCc1cccc(OS(=O)(=O)O)c1)C(=O)N[C@@H](CC(=O)O)C(=O)N[C@@H](Cc1ccccc1)C(N)=O (Boc-WK(X22)DF-NH2) | 50%
21 | 0.0072 µM |  | CC(C)(C)OC(=O)N[C@@H](Cc1c[nH]c2ccccc12)C(=O)N[C@@H](CCCCNC(=O)/C=C\c1ccc(OS(=O)(=O)O)cc1)C(=O)N[C@@H](CC(=O)O)C(=O)N[C@@H](Cc1ccccc1)C(N)=O (Boc-WK(X35)DF-NH2) | 72%
22 | 0.0035 µM | 0.0045 µM | CC(C)(C)OC(=O)N[C@@H](Cc1c[nH]c2ccccc12)C(=O)N[C@@H](CCCCNC(=O)c1ccc2cc(O)ccc2c1)C(=O)N[C@@H](CC(=O)O)C(=O)N[C@@H](Cc1ccccc1)C(N)=O (Boc-WK(2Naphthoyl(6-OH))DF-NH2) | 50%
23 | 0.032 µM | 0.03 µM | CN(C(=O)[C@H](CC(=O)O)NC(=O)[C@H](CCCCNC(=O)CCc1ccc(O)cc1)NC(=O)[C@H](Cc1c[nH]c2ccccc12)NC(=O)OC(C)(C)C)[C@@H](Cc1ccccc1)C(N)=O (Boc-WK(Desaminotyrosyl)D[NMeF]-NH2) | 77%
24 | 0.09 µM | 0.13 µM | CC(C)(C)OC(=O)N[C@@H](Cc1c[nH]c2ccccc12)C(=O)N[C@@H](CCCCNC(=O)/C=C\c1ccc(Cl)cc1Cl)C(=O)N[C@@H](CC(=O)O)C(=O)N[C@@H](Cc1ccccc1)C(N)=O (Boc-WK(X10)DF-NH2) | 86%
25 | 0.02 µM | 0.039 µM | CC(C)(C)OC(=O)N[C@@H](Cc1c[nH]c2ccccc12)C(=O)N[C@@H](CCCCNC(=O)c1cc2ccccc2[nH]1)C(=O)N[C@@H](CC(=O)O)C(=O)N[C@@H](Cc1ccccc1)C(N)=O (Boc-WK(X18)DF-NH2) | 18%
26 | 0.02 µM | 0.05 µM | CC(C)(C)OC(=O)N[C@@H](Cc1c[nH]c2ccccc12)C(=O)N[C@@H](CCCCNC(=O)/C=C/c1cccs1)C(=O)N[C@@H](CC(=O)O)C(=O)N[C@@H](Cc1ccccc1)C(N)=O (Boc-WK(X9)DF-NH2) | 66%
27 | 0.028 µM | 0.028 µM | CN(C(=O)[C@H](CC(=O)O)NC(=O)[C@H](CCCCNC(=O)/C=C/c1cccnc1)NC(=O)[C@H](Cc1c[nH]c2ccccc12)NC(=O)OC(C)(C)C)[C@@H](Cc1ccccc1)C(N)=O (Boc-WK(Acryloyl(3-(3-pyridyl),E))D[NMeF]-NH2) | 74%
28 | 0.038 µM | 0.14 µM | CC(C)(C)OC(=O)N[C@@H](Cc1c[nH]c2ccccc12)C(=O)N[C@@H](CCCCNC(=O)/C=C\c1ccc(Br)cc1)C(=O)N[C@@H](CC(=O)O)C(=O)N[C@@H](Cc1ccccc1)C(N)=O (Boc-WK(X21)DF-NH2) | 72%
29 | 0.045 µM | 0.033 µM | CC(C)(C)OC(=O)N[C@@H](Cc1c[nH]c2ccccc12)C(=O)N[C@@H](CCCCNC(=O)/C=C\c1ccc(O)c(O)c1)C(=O)N[C@@H](CC(=O)O)C(=O)N[C@@H](Cc1ccccc1)C(N)=O (Boc-WK(X1)DF-NH2) | 66%
30 | 0.079 µM |  | CC(C)(C)OC(=O)N[C@@H](Cc1c[nH]c2ccccc12)C(=O)N[C@@H](CCCCNC(=O)/C=C\c1ccc(Cl)cc1)C(=O)N[C@@H](CC(=O)O)C(=O)N[C@@H](Cc1ccccc1)C(N)=O (Boc-WK(X34)DF-NH2) | 66%
